1 compound from patent US20080194544A1, “AQUEOUS FORMULATIONS OF EPINASTINE FOR TREATING ALLERGIC RHINITIS” (priority 2007, published 2008) can be followed below.

For the data set the following is noted: intranasal 0.05% or 0.1% spray. The procedure:
Each group started with approximately 190 subjects.
The plasma samples from 43 subjects included in this clinical trial were collected for pharamacokinetic analysis following the first dose (Day 1) and the last dose (Day 14). Plasma epinastine levels following intranasal administration were determined.

`NC1=NCC2c3ccccc3Cc3ccccc3N12` (centres unmarked) [epinastine, 3-amino-9,13b-dihydro-1H-dibenz-[c,-f]imidazol[1,5-a]azepine]: the “dose proportionality of plasma epinastine concentrations” value was “generally proportional to the nasal dose administered”. Moreover, the “plasma concentrations of epinastine” value (after first dose (Day 1) and last dose (Day 14), 43 subjects) is < 1 ng/mL.
